How the values were obtained:
Settings in all cases: mouse, in vivo
[1] = test system: enterotoxinogenic strain of Clostridium perfringens; design: species or system axenic C3H/He mice
[2] = test system: enterotoxinogenic strain of Clostridium perfringens; design: species or system axenic C3H/He mice; remark: listed apart in the source
[3] = test system: enterotoxinogenic strain of Clostridium perfringens

OC[C@H]1O[C@@H](O[C@H]2[C@H](O)[C@@H](O)C(O)O[C@@H]2CO)[C@H](O)[C@@H](O)[C@H]1O (some centres unmarked) [Lactose]
Count (log CFU/g of feces) of Clostridium perfringens [1]: Mice dead or dying
Clostridium perfringens count, Blood [2]: 2.3 log CFU/g
Clostridium perfringens count, Cecum [2]: 5.5 ± 0.8 log CFU/g
Clostridium perfringens count, Colon [2]: 6.6 ± 0.1 log CFU/g
Clostridium perfringens count, Ileum [2]: 3.4 ± 0.8 log CFU/g
Clostridium perfringens count, Kidney [2]: 3.0 log CFU/g
Clostridium perfringens count, Liver [2]: 4.4 log CFU/g
Clostridium perfringens count, Spleen [2]: 4.2 log CFU/g
bacterial translocation, in words [2]: promotes bacterial translocation
colonization of the intestine vs control mice, in words [2]: weak colonization of the intestine
mice died [3]: 100%
